From patent publication US12258339B2, “Macrocyclic complexes of alpha-emitting radionuclides and their use in targeted radiotherapy of cancer” (Cornell University, priority 2018, dated 2025)

Test: In vivo biodistribution of ^225Ac complexes of macropa and DOTA and of ^225Ac(NO3)3 in mice
Set-up: species or system C57BL/6 mice
Description: In Vivo Biodistribution of ^225Ac Complexes of Macropa and DOTA. All experiments were approved by the Institutional Animal Care Committee (IACC) of the University of British Columbia and were performed in accordance with the Canadian Council on Animal Care Guidelines. A total of 9 female C57BL/6 mice (6-8 weeks old, 20-25 g) were used for the biodistribution study of each radiometal complex, n=3 for each time point.
Macropa (100 μL of a 1 mg/mL solution in NH4OAc) was diluted with 387 μL of NH4OAc (1 M, pH 7), and an aliquot (203 μL) of ^225Ac(NO3)3 (˜157 kBq) was then added; the pH of this solution was adjusted to 6.5-7 by the addition of 1 M NaOH (210 μL, trace metal grade). After 5 min at ambient temperature, the reaction solution was analyzed by TLC (0.4 M pH 4 sodium citrate as the eluent), which confirmed >95% radiochemical yield. The reaction was allowed to proceed overnight, and the radiochemical yield was again confirmed to be >95% the following morning. At this time, mice were anesthetized by 2% isoflurane, and approximately 100 μL (10-15 kBq) of the [^225Ac(macropa)]^+ complex were injected into the tail vein of each mouse. After injection, mice were allowed to recover and roam freely in their cages, and were euthanized by CO2 inhalation at 15 min, 1 h, or 5 h (n=3 at each time point) post-injection. Blood was collected by cardiac puncture and placed into an appropriate test tube for scintillation counting. Tissues collected included heart, liver, kidneys, lungs, small intestine, large intestine, brain, bladder, spleen, stomach, pancreas, bone, thyroid, tail, urine, and feces. Tissues were weighed and then counted with a calibrated gamma counter (Packard, Cobra II model 5002) using three energy windows: 60-120 keV (window A), 180-260 keV (window B), and 400-480 keV (window C). Counting was performed both immediately after sacrifice and after 7 days; counts were decay corrected from the time of injection and then converted to the percentage of injected dose (% ID) per gram of tissue (% ID/g). […]
The biodistribution studies of [^225Ac(DOTA)]^− and ^225Ac(NO3)3 were carried out as described above for [^225Ac(macropa)]^+, with the following modifications. [^225Ac(DOTA)^− was prepared by adding ^225Ac(NO3)3 (338 μL, 1.1 MBq) to a solution of DOTA (100 μg, 20 mg/mL in H2O) in NH4OAc (467 μL, 0.15 M, pH 7). The pH of the solution was adjusted to 7 using NH4OAc (150 μL, 1 M, pH 7) and the solution was heated at 85° C. for 45 min. RCY>99% was confirmed by TLC as described above. [^225Ac(DOTA)]^− was diluted with saline to a final concentration of 0.05 MBq/100 μL, and 100 μL were injected into each mouse. ^225Ac(NO3)3 (˜58 μL, 0.4 MBq) was diluted and injected in the same manner as [^225Ac(DOTA)]^−. One mouse that was to be euthanized at the 5 h time point in the [^225Ac(DOTA)]^− study died shortly after injection. In the same manner, one mouse that was to be euthanized at the 1 h time point in the ^225Ac(NO3)3 study died.
The in vivo stability [^225Ac(macropa)]^+ was examined by comparing its biodistribution to those of ^225Ac(NO3)3 and [^225Ac(DOTA)]^−. C57BL/6 mice were injected via tail vein with 10-50 kBq of each radiometal complex and were sacrificed after 15 min, 1 h, or 5 h. The amount of ^225Ac retained in each organ was quantified by gamma counting and reported as the percent of injected dose per gram of tissue (% ID/g). The results of these studies are compiled in Tables 1-3. Inadequate stability of an ^225Ac complex leading to the loss of radioisotope in vivo is manifested by the accumulation of ^225Ac in the liver, spleen, and bone of mice.^[11,12,32] […] The biodistribution profile of [^225Ac(macropa)]^+ (FIG. 3B) differs markedly from that of ^225Ac(NO3)3. […] Its biodistribution profile was similar to that of [^225Ac(DOTA)]^− (FIG. 3C), which has been previously shown to retain ^225Ac in vivo.^[7]

[1] = 15 min after i.v. injection, energy window A (60-120 keV)
[2] = 15 min after i.v. injection, energy window C (400-480 keV)
[3] = 1 h after i.v. injection, energy window A (60-120 keV)
[4] = 1 h after i.v. injection, energy window B (180-260 keV)
[5] = 1 h after i.v. injection, energy window C (400-480 keV)
[6] = 5 h after i.v. injection, energy window A (60-120 keV)
[7] = 5 h after i.v. injection, energy window B (180-260 keV)
[8] = 5 h after i.v. injection, energy window C (400-480 keV)

O=C([O-])c1cccc(CN2CCOCCOCCN(Cc3cccc(C(=O)[O-])n3)CCOCCOCC2)n1.[225Ac+3] [[^225Ac(macropa)]^+]
Organ distribution: brain [1]: 0.26 % ID/g
Organ distribution: feces [1]: 0.91 % ID/g
Organ distribution: large intestines [1]: 2.40 % ID/g
Organ distribution: brain (15 min after i.v. injection, energy window B (180-260 keV)): 0.23 % ID/g
Organ distribution: brain [2]: 0.17 % ID/g
Organ distribution: pancreas [2]: 3.00 % ID/g
Organ distribution: blood [3]: 0.40 % ID/g
Organ distribution: bone (femur + joint) [3]: 0.31 % ID/g
Organ distribution: brain [3]: 0.12 % ID/g
Organ distribution: feces [3]: 0.28 % ID/g
Organ distribution: heart [3]: 0.31 % ID/g
Organ distribution: large intestines [3]: 0.36 % ID/g
Organ distribution: liver [3]: 0.75 % ID/g
Organ distribution: lungs [3]: 0.51 % ID/g
Organ distribution: pancreas [3]: 0.19 % ID/g
Organ distribution: small intestines [3]: 1.10 % ID/g
Organ distribution: spleen [3]: 0.51 % ID/g
Organ distribution: stomach [3]: 0.41 % ID/g
Organ distribution: blood [4]: 0.39 % ID/g
Organ distribution: bone (femur + joint) [4]: 0.17 % ID/g
Organ distribution: brain [4]: 0.12 % ID/g
Organ distribution: feces [4]: 0.27 % ID/g
Organ distribution: heart [4]: 0.20 % ID/g
Organ distribution: large intestines [4]: 0.22 % ID/g
Organ distribution: liver [4]: 0.70 % ID/g
Organ distribution: lungs [4]: 0.54 % ID/g
Organ distribution: pancreas [4]: 0.12 % ID/g
Organ distribution: small intestines [4]: 0.94 % ID/g
Organ distribution: spleen [4]: 0.23 % ID/g
Organ distribution: stomach [4]: 0.33 % ID/g
Organ distribution: thyroids [4]: 0.10 % ID/g
Organ distribution: bladder [5]: 9.00 % ID/g
Organ distribution: blood [5]: 0.54 % ID/g
Organ distribution: bone (femur + joint) [5]: 0.70 % ID/g
Organ distribution: brain [5]: 0.23 % ID/g
Organ distribution: feces [5]: 0.69 % ID/g
Organ distribution: heart [5]: 0.23 % ID/g
Organ distribution: large intestines [5]: 0.79 % ID/g
Organ distribution: lungs [5]: 0.84 % ID/g
Organ distribution: pancreas [5]: 0.43 % ID/g
Organ distribution: spleen [5]: 0.48 % ID/g
Organ distribution: stomach [5]: 0.17 % ID/g
Organ distribution: blood [6]: 0.01 % ID/g
Organ distribution: bone (femur + joint) [6]: 0.05 % ID/g
Organ distribution: brain [6]: 0.02 % ID/g
Organ distribution: heart [6]: 0.10 % ID/g
Organ distribution: kidneys [6]: 0.74 % ID/g
Organ distribution: large intestines [6]: 0.49 % ID/g
Organ distribution: liver [6]: 0.39 % ID/g
Organ distribution: lungs [6]: 0.01 % ID/g
Organ distribution: pancreas [6]: 0.10 % ID/g
Organ distribution: small intestines [6]: 0.29 % ID/g
Organ distribution: spleen [6]: 0.11 % ID/g
Organ distribution: stomach [6]: 0.01 % ID/g
Organ distribution: tail [6]: 0.14 % ID/g
Organ distribution: thyroids [6]: 0.10 % ID/g
Organ distribution: blood [7]: 0.00 % ID/g
Organ distribution: bone (femur + joint) [7]: 0.02 % ID/g
Organ distribution: brain [7]: −0.01 % ID/g
Organ distribution: heart [7]: −0.04 % ID/g
Organ distribution: kidneys [7]: 0.78 % ID/g
Organ distribution: large intestines [7]: 0.45 % ID/g
Organ distribution: liver [7]: 0.36 % ID/g
Organ distribution: lungs [7]: −0.05 % ID/g
Organ distribution: pancreas [7]: −0.12 % ID/g
Organ distribution: small intestines [7]: 0.29 % ID/g
Organ distribution: spleen [7]: 0.09 % ID/g
Organ distribution: stomach [7]: 0.04 % ID/g
Organ distribution: tail [7]: 0.13 % ID/g
Organ distribution: blood [8]: 0.04 % ID/g
Organ distribution: bone (femur + joint) [8]: 0.08 % ID/g
Organ distribution: brain [8]: −0.01 % ID/g
Organ distribution: heart [8]: 0.28 % ID/g
Organ distribution: large intestines [8]: 0.68 % ID/g
Organ distribution: liver [8]: 0.55 % ID/g
Organ distribution: lungs [8]: 0.15 % ID/g
Organ distribution: pancreas [8]: 0.13 % ID/g
Organ distribution: small intestines [8]: 0.42 % ID/g
Organ distribution: spleen [8]: 0.43 % ID/g
Organ distribution: stomach [8]: 0.13 % ID/g
Organ distribution: tail [8]: 0.28 % ID/g
blood clearance and excretion (in words) (i.v. injection, up to 5 h): rapidly cleared from mice
organ accumulation (in words) (i.v. injection, up to 5 h): did not accumulate in any organ
